Molecules are shown by their SMILES.

Type in all cases: functional
Assay [1] can be described thus: Antioxidant activity assessed as oxygen radical absorbance capacity index value by fluorescein protection assay.
A short description of assay [2]: Antioxidant activity assessed as oxygen radical absorbance capacity index value at 5 uM by pyrogallol red protection assay.
A short description of assay [3]: Antioxidant activity assessed as oxygen radical absorbance capacity index value by pyrogallol red protection assay.

As to `O=C1O[C@H]([C@@H](O)CO)C(O)=C1O`, the Activity in assay [1] worked out at 0.95; in assay [2], 9.7.

In the case of `Oc1nc(O)c2nc(O)[nH]c2n1`, the Activity in assay [1] came to 0.72; in assay [3], 0.02. In the case of `N[C@@H](CCC(=O)N[C@@H](CS)C(=O)NCC(=O)O)C(=O)O`, the Activity in assay [1] came out at 0.62.

Values taken from ChEMBL document CHEMBL1142471, “Antioxidant capacity of human blood plasma and human urine: simultaneous evaluation of the ORAC index and ascorbic acid concentration employing pyrogallol red as probe” (Bioorg Med Chem, 2008).
